According to patent publication US9492471B2, “Methods of treating a disease or disorder associated with Bruton'S Tyrosine Kinase” (Celgene Avilomics Research, Inc., priority 2013, dated 2016):
Where two headings read alike, the source gives them in different places.

What was measured:
Test in all cases: HotSpot kinase profiling
Assay type in all cases: biochemical
[1] = biological target: T1, ITK (Homo sapiens, UniProt Q08881)
T1 construct: purchased Reaction Biology Corp
T1 sequence (Q08881 1-620): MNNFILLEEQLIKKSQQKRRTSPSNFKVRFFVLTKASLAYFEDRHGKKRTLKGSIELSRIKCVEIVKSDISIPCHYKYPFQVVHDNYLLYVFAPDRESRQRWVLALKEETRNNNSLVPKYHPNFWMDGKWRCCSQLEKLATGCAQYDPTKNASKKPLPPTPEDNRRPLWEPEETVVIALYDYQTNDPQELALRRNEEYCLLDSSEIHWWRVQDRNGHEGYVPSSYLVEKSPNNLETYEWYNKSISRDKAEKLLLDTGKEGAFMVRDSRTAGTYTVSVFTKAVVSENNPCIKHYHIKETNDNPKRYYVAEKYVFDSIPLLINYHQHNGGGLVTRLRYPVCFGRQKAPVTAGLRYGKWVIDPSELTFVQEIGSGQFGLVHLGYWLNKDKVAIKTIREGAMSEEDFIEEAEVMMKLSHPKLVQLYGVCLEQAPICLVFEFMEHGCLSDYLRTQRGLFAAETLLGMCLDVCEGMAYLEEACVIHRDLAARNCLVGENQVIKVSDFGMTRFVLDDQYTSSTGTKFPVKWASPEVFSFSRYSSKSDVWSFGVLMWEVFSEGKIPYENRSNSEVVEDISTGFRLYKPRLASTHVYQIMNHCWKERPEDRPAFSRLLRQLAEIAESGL
How it was run: (§1)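 Radio-isotope P81 filtration format. Substrate + required cofactors in reaction buffer, kinase added, 2 h RT. Stop, wash with 0.1% phosphoric acid, detect. % inhibition vs DMSO; mean of duplicates where repeated.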

[2] = biological target: T2, JNK3 (Homo sapiens, UniProt P53779)
T2 construct: purchased Reaction Biology Corp
How it was run: as §1

[3] = biological target: T3, FLT3 (Homo sapiens, UniProt P36888)
T3 construct: purchased Reaction Biology Corp
T3 sequence (P36888 27-993): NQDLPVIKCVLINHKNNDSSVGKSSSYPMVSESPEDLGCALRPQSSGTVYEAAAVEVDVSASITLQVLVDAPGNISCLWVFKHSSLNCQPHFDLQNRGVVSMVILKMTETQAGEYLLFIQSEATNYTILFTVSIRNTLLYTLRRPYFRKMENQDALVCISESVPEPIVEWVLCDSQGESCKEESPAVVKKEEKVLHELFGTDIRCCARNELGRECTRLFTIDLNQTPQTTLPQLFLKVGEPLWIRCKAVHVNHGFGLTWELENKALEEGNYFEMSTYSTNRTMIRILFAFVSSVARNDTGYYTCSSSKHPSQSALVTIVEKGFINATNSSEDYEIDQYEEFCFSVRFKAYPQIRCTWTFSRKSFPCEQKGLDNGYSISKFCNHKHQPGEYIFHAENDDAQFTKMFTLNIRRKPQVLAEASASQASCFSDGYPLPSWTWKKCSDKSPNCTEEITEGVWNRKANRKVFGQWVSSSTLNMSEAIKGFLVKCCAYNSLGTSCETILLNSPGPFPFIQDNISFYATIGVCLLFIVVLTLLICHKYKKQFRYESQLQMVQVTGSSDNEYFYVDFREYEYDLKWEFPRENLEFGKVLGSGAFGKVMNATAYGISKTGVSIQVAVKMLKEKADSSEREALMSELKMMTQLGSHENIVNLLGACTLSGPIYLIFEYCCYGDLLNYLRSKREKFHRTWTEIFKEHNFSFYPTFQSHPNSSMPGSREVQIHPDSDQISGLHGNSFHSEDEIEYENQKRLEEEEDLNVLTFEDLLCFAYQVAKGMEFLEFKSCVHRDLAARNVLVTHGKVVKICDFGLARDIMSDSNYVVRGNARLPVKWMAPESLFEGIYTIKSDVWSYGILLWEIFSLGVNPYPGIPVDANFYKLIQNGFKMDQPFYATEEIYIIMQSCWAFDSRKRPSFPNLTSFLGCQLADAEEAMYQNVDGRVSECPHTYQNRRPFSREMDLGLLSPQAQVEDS
How it was run: as §1

[4] = read-out: % Enzyme Activity (relative to DMSO controls) Run 1
[5] = read-out: % Enzyme Activity (relative to DMSO controls) Run 2

T2 sequence (P53779 whole entry): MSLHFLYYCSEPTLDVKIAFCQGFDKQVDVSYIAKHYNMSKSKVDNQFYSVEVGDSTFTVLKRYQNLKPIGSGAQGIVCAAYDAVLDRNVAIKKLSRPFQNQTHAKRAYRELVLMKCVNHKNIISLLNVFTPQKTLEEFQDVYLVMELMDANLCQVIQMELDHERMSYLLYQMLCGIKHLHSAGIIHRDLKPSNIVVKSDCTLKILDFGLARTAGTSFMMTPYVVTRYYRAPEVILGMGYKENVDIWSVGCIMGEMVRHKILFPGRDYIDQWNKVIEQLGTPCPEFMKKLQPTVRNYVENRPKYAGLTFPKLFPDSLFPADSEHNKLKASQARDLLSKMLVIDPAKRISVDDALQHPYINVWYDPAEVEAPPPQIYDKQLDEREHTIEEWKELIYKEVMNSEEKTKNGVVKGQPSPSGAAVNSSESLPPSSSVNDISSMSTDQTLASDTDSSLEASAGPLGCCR

C=CC(=O)Nc1cccc(Nc2nc(Nc3ccc(OCCOC)c(F)c3)ncc2F)c1 [Compound 2]
inhibition at 3 µM [1]: 92%
remaining activity at 3 µM [1, 4]: 7.97%
remaining activity at 3 µM [1, 5]: 7.95%
inhibition at 3 µM [2]: -12.8%
remaining activity at 3 µM [2, 4]: 110%
remaining activity at 3 µM [2, 5]: 116%
inhibition at 3 µM [3]: 96.8%
remaining activity at 3 µM [3, 4]: 3.19%
remaining activity at 3 µM [3, 5]: 3.25%
